# What was measured:
# Assay in all cases: Test D controlled growth environment herbicide test, pre- and postemergence
# Assay type in all cases: in vivo
# [1] = system: mustard, wild (wild mustard, Sinapis arvensis)
# Description: (§1) Seeds of plant species selected from bluegrass (annual bluegrass, Poa annua), blackgrass (Alopecurus myosuroides), Canada thistle (Cirsium arvense), canarygrass (Phalaris minor), chickweed (common chickweed, Stellaria media), geranium, cutleaf (cutleaf geranium, Geranium dissectum), galium (catchweed bedstraw, Galium aparine), bromegrass, downy (downy bromegrass, Bromus tectorum), field poppy (Papaver rhoeas), field violet (Viola arvensis), foxtail, green (green foxtail, Setaria viridis), deadnettle (henbit deadnettle, Lamium amplexicaule), ryegrass, Italian (Italian ryegrass, Lolium multiflorum), kochia (Kochia scoparia), lambsquarters (Chenopodium album), oilseed rape (Brassica napus), pigweed (Amaranthus retroflexus), chamomile (scentless chamomile, Matricaria inodora), Russian thistle (Salsola kali), speedwell (bird's-eye speedwell, Veronica persica), barley, spring (spring barley, Hordeum vulgare), wheat, spring (spring wheat, Triticum aestivum), buckwheat, wild (wild buckwheat, Polygonum convolvulus), mustard, wild (wild mustard, Sinapis arvensis), oat, wild (wild oat, Avena fatua), radish, wild (wild radish, Raphanus raphanistrum), windgrass (Apera spica-venti), barley, winter (winter barley, Hordeum vulgare), and wheat, winter (winter wheat, Triticum aestivum) were planted into a silt loam soil and treated preemergence with test chemicals formulated in a non-phytotoxic solvent mixture which included a surfactant.
# (§2) At the same time, these species were planted in pots containing Redi-Earth® planting medium (Scotts Company, 14111 Scottslawn Road, Marysville, Ohio 43041) comprising spaghnum peat moss, vermiculite, wetting agent and starter nutrients and treated with postemergence applications of the test chemicals formulated in the same manner. Plants ranged in height from 2 to 18 cm (1- to 4-leaf stage). Treated plants and controls were maintained in a controlled growth environment for 14 to 21 d after which time all species were compared to controls and visually evaluated. Plant response ratings, summarized in Table D, are based on a scale of 0 to 100 where 0 is no effect and 100 is complete control. A dash (-) response means no test result.
# [2] = system: chamomile (scentless chamomile, Matricaria inodora)
# Description: as §1, §2
# [3] = system: oilseed rape (Brassica napus)
# Description: as §1, §2
# [4] = system: kochia (Kochia scoparia)
# Description: as §1, §2
# [5] = system: bromegrass, downy (downy bromegrass, Bromus tectorum)
# Description: as §1, §2
# [6] = system: foxtail, green (green foxtail, Setaria viridis)
# Description: as §1, §2
# [7] = system: galium (catchweed bedstraw, Galium aparine)
# Description: as §1, §2
# [8] = system: blackgrass (Alopecurus myosuroides)
# Description: as §1, §2
# [9] = system: deadnettle (henbit deadnettle, Lamium amplexicaule)
# Description: as §1, §2
# [10] = system: buckwheat, wild (wild buckwheat, Polygonum convolvulus)
# Description: as §1, §2
# [11] = system: ryegrass, Italian (Italian ryegrass, Lolium multiflorum)
# Description: as §1, §2
# [12] = system: speedwell (bird's-eye speedwell, Veronica persica)
# Description: as §1, §2
# [13] = system: pigweed (Amaranthus retroflexus)
# Description: as §1, §2
# [14] = system: windgrass (Apera spica-venti)
# Description: as §1, §2
# [15] = Postemergence, 31 g ai/ha, scale 0 to 100 (0 no effect, 100 complete control)
# [16] = Postemergence, 125 g ai/ha, visual rating on scale 0 (no effect) to 100 (complete control), 14 to 21 d
# [17] = Postemergence, 250 g ai/ha, scale 0 to 100 (0 no effect, 100 complete control)
# [18] = Preemergence, 62 g ai/ha, scale 0 to 100 (0 no effect, 100 complete control)
# [19] = Preemergence, 125 g ai/ha, scale 0 to 100 (0 no effect, 100 complete control)
# [20] = Preemergence, 250 g ai/ha, scale 0 to 100, 0 no effect, 100 complete control
# [21] = postemergence, 62 g ai/ha, scale 0 to 100, 0 no effect, 100 complete control
smiles,measurement,setting,value
Cc1cc2ccccc2c(-c2c(O)c(C)nn(C)c2=O)c1C [Compound 34],"Mustard, Wild plant response rating",[1]; [15],80
same,"Plant response rating, Mustard, Wild",[1]; [16],100
same,"Plant response rating, Mustard, Wild",[1]; [17],100
same,"Plant response rating (scale of 0 to 100), Mustard, Wild","[1]; Preemergence, 31 g ai/ha",15
same,"Plant response rating, Mustard, Wild",[1]; [18],25
same,"Plant response rating, Mustard, Wild",[1]; [19],75
same,"Plant response rating, Mustard, Wild",[1]; [20],100
same,"Plant response rating, Mustard, Wild",[1]; [21],85
same,Chamomile plant response rating,[2]; [15],75
same,"Plant response rating, Chamomile",[2]; [16],100
same,"Plant response rating, Chamomile",[2]; [17],100
same,"Plant response rating, Chamomile",[2]; [21],80
same,Oilseed Rape plant response rating,[3]; [15],65
same,"Plant response rating, Oilseed Rape",[3]; [16],75
same,"Plant response rating, Oilseed Rape",[3]; [17],90
same,"Plant response rating (scale of 0 to 100), Oilseed Rape","[3]; Preemergence, 31 g ai/ha",10
same,"Plant response rating, Oilseed Rape",[3]; [18],55
same,"Plant response rating, Oilseed Rape",[3]; [19],50
same,"Plant response rating, Oilseed Rape",[3]; [20],85
same,"Plant response rating, Oilseed Rape",[3]; [21],70
same,Kochia plant response rating,[4]; [15],60
same,"Plant response rating, Kochia",[4]; [16],85
same,"Plant response rating, Kochia",[4]; [17],95
same,"Plant response rating (scale of 0 to 100), Kochia","[4]; Preemergence, 31 g ai/ha",25
same,"Plant response rating, Kochia",[4]; [18],10
same,"Plant response rating, Kochia",[4]; [19],15
same,"Plant response rating, Kochia",[4]; [20],50
same,"Plant response rating, Kochia",[4]; [21],85
same,"Bromegrass, Downy plant response rating",[5]; [15],20
same,"Plant response rating, Bromegrass, Downy",[5]; [16],40
same,"Plant response rating, Bromegrass, Downy",[5]; [17],70
same,"Plant response rating (scale of 0 to 100), Bromegrass, Downy","[5]; Preemergence, 31 g ai/ha",0
same,"Plant response rating, Bromegrass, Downy",[5]; [18],50
same,"Plant response rating, Bromegrass, Downy",[5]; [19],50
same,"Plant response rating, Bromegrass, Downy",[5]; [20],80
same,"Plant response rating, Bromegrass, Downy",[5]; [21],30
same,"Foxtail, Green plant response rating",[6]; [15],40
same,"Plant response rating, Foxtail, Green",[6]; [16],55
same,"Plant response rating, Foxtail, Green",[6]; [17],70
same,"Plant response rating (scale of 0 to 100), Foxtail, Green","[6]; Preemergence, 31 g ai/ha",55
same,"Plant response rating, Foxtail, Green",[6]; [18],60
same,"Plant response rating, Foxtail, Green",[6]; [19],60
same,"Plant response rating, Foxtail, Green",[6]; [20],75
same,"Plant response rating, Foxtail, Green",[6]; [21],45
same,Galium plant response rating,[7]; [15],95
same,"Plant response rating, Galium",[7]; [16],100
same,"Plant response rating, Galium",[7]; [17],100
same,"Plant response rating (scale of 0 to 100), Galium","[7]; Preemergence, 31 g ai/ha",0
same,"Plant response rating, Galium",[7]; [18],35
same,"Plant response rating, Galium",[7]; [19],80
same,"Plant response rating, Galium",[7]; [20],85
same,"Plant response rating, Galium",[7]; [21],100
same,Blackgrass plant response rating,[8]; [15],25
same,"Plant response rating, Blackgrass",[8]; [16],70
same,"Plant response rating, Blackgrass",[8]; [17],75
same,"Plant response rating (scale of 0 to 100), Blackgrass","[8]; Preemergence, 31 g ai/ha",15
same,"Plant response rating, Blackgrass",[8]; [18],20
same,"Plant response rating, Blackgrass",[8]; [19],40
same,Blackgrass plant response rating,[8]; [20],65
same,"Plant response rating, Blackgrass",[8]; [21],40
same,Deadnettle plant response rating,[9]; [15],95
same,"Plant response rating, Deadnettle",[9]; [16],100
same,"Plant response rating, Deadnettle",[9]; [17],100
same,"Plant response rating (scale of 0 to 100), Deadnettle","[9]; Preemergence, 31 g ai/ha",0
same,"Plant response rating, Deadnettle",[9]; [18],40
same,"Plant response rating, Deadnettle",[9]; [19],50
same,"Plant response rating, Deadnettle",[9]; [20],95
same,"Plant response rating, Deadnettle",[9]; [21],100
same,"Buckwheat, Wild plant response rating",[10]; [15],100
same,"Plant response rating, Buckwheat, Wild",[10]; [16],100
same,"Plant response rating, Buckwheat, Wild",[10]; [17],100
same,"Plant response rating (scale of 0 to 100), Buckwheat, Wild","[10]; Preemergence, 31 g ai/ha",0
same,"Plant response rating, Buckwheat, Wild",[10]; [18],10
same,"Plant response rating, Buckwheat, Wild",[10]; [19],0
same,"Plant response rating, Buckwheat, Wild",[10]; [20],0
same,"Plant response rating, Buckwheat, Wild",[10]; [21],100
same,"Ryegrass, Italian plant response rating",[11]; [15],90
same,"Plant response rating, Ryegrass, Italian",[11]; [16],95
same,"Plant response rating, Ryegrass, Italian",[11]; [17],95
same,"Plant response rating (scale of 0 to 100), Ryegrass, Italian","[11]; Preemergence, 31 g ai/ha",75
same,"Plant response rating, Ryegrass, Italian",[11]; [18],95
same,"Plant response rating, Ryegrass, Italian",[11]; [19],100
same,"Plant response rating, Ryegrass, Italian",[11]; [20],100
same,"Plant response rating, Ryegrass, Italian",[11]; [21],95
same,Speedwell plant response rating,[12]; [15],65
same,"Plant response rating, Speedwell",[12]; [16],100
same,"Plant response rating, Speedwell",[12]; [17],100
same,"Plant response rating (scale of 0 to 100), Speedwell","[12]; Preemergence, 31 g ai/ha",100
same,"Plant response rating, Speedwell",[12]; [18],100
same,"Plant response rating, Speedwell",[12]; [19],100
same,"Plant response rating, Speedwell",[12]; [20],100
same,"Plant response rating, Speedwell",[12]; [21],75
same,Pigweed plant response rating,[13]; [15],100
same,"Plant response rating, Pigweed",[13]; [16],100
same,"Plant response rating, Pigweed",[13]; [17],100
same,"Plant response rating (scale of 0 to 100), Pigweed","[13]; Preemergence, 31 g ai/ha",50
same,"Plant response rating, Pigweed",[13]; [18],95
same,"Plant response rating, Pigweed",[13]; [19],100
same,"Plant response rating, Pigweed",[13]; [20],100
same,"Plant response rating, Pigweed",[13]; [21],100
same,Windgrass plant response rating,[14]; [15],40
same,"Plant response rating, Windgrass",[14]; [16],65
same,"Plant response rating, Windgrass",[14]; [17],75
same,"Plant response rating (scale of 0 to 100), Windgrass","[14]; Preemergence, 31 g ai/ha",15
same,"Plant response rating, Windgrass",[14]; [18],25
same,"Plant response rating, Windgrass",[14]; [19],55
same,"Plant response rating, Windgrass",[14]; [20],70
same,"Plant response rating, Windgrass",[14]; [21],50

# Reference: patent publication US10597388B2, “Pyridazinone herbicides” (FMC CORPORATION, priority 2014, dated 2020)
